# Data as given in ChEMBL document CHEMBL6074685, “Design, synthesis and biological evaluation of novel diaryl-substituted fused nitrogen heterocycles as tubulin polymerization inhibitors to overcome multidrug resistance in vitro and in vivo” (Eur J Med Chem, 2025).
# Calls of active or inactive are those of the source. No cut-off for these calls is given here.
# Legend:
# [1] = Toxicity in BALB/c mouse implanted with human A549/T cell assessed as MCH level at 30 mg/kg, ip administered every 2 days and measured after 2 weeks (reference value: 29.2 pg); type: organism-based; settings: in vivo, 336 h
# [2] = Toxicity in BALB/c mouse implanted with human A549/T cell assessed as red blood cell distribution width-cell size at 30 mg/kg, ip administered every 2 days and measured after 2 weeks (reference value: 12.1 fL); type: organism-based; settings: in vivo, 336 h
# [3] = Toxicity in BALB/c mouse implanted with human A549/T cell assessed as MCH level at 15 mg/kg, ip administered every 2 days and measured after 2 weeks (reference value: 29.2 pg); type: organism-based; settings: in vivo, 336 h
# [4] = Toxicity in BALB/c mouse implanted with human A549/T cell assessed as MCHC level at 15 mg/kg, ip administered every 2 days and measured after 2 weeks (reference value: 570 g/L); type: organism-based; settings: in vivo, 336 h
# [5] = Resistance index, ratio of IC50 for human A549/T cells to IC50 for human A549 cells; type: functional
# [6] = Toxicity in BALB/c mouse implanted with human A549/T cell assessed as RBC count at 30 mg/kg, ip administered every 2 days and measured after 2 weeks (reference value: 7.92 10^12/L); type: organism-based; settings: in vivo, 336 h
# [7] = Toxicity in BALB/c mouse implanted with human A549/T cell assessed as red blood cell distribution width-cell volume at 30 mg/kg, ip administered every 2 days and measured after 2 weeks (reference value: 25fL); type: organism-based; settings: in vivo, 336 h
# Tubulin (Homo sapiens) [8] = biological target: T1, Tubulin (Homo sapiens) (UniProt P68371+Q9H4B7+P0DPH7+P68366+Q13509+Q71U36+P04350+Q3ZCM7+P07437+P68363+Q9BQE3+Q6PEY2+Q13885+Q9BVA1+Q9BUF5); test: Disruption of microtubule network in human A549/T cell assessed as change in microtubule morphology at 100 to 200 nM incubated for 24 hrs by immunofluorescence staining based confocal microscopy analysis; settings: dose 100-200 nM
# [9] = Toxicity in BALB/c mouse implanted with human A549/T cell assessed as monocyte count at 15 mg/kg, ip administered every 2 days and measured after 2 weeks (reference value: 30.6 %); type: organism-based; settings: in vivo, 336 h
# A549 [10] = test: Induction of apoptosis in human A549 cells at 25 nM incubated for 48 hrs by V-FITC/PI staining based flow cytometry analysis relative to control; type: functional
# [11] = Toxicity in BALB/c mouse implanted with human A549/T cell assessed as change in body weight at 15 mg/kg, ip administered every 2 days; type: organism-based; settings: in vivo, 48 h, time 2 day
# HCC827 = test: Antiproliferative activity against human HCC827 cells assessed as cell growth inhibition incubated for 48 hrs by MTT assay; type: functional, cell-based; settings: HCC827, 48 h
# A549/TR [12] = test: Induction of apoptosis in human A549/T cell at 62.5 nM incubated for 48 hrs by V-FITC/PI staining based flow cytometry analysis relative to control; type: functional
# [13] = Toxicity in BALB/c mouse implanted with human A549/T cell assessed as Plate-letocrit at 15 mg/kg, ip administered every 2 days and measured after 2 weeks (reference value: 0.549%); type: organism-based; settings: in vivo, 336 h
# A549/TR [14] = test: Effect on P-gp protein level in human A549/T cell at 62.5 to 500 nM measured at 12 hrs by immunoblotting analysis; type: functional, cell-based; settings: dose 62.5-500 nM
# [15] = Metabolic stability in mouse liver microsome assessed as intrinsic clearance measured upto 50 mins by LC-MS/MS analysis; type: ADME; settings: liver microsomes, read-out: CLH
# NCI-H1299 = test: Antiproliferative activity against human NCI-H1299 cells assessed as cell growth inhibition incubated for 48 hrs by MTT assay; type: functional, cell-based; settings: NCI-H1299, 48 h
# [16] = Toxicity in BALB/c mouse implanted with human A549/T cell assessed as lymphocyte count at 30 mg/kg, ip administered every 2 days and measured after 2 weeks (reference value: 56%); type: organism-based; settings: in vivo, 336 h
# A549/TR [17] = test: Inhibition of colony formation in human A549/T cell incubated for 48 hrs by crystal violet staining based analysis; type: functional; settings: dose 0.1-0.5 µM
# [18] = Metabolic stability in human liver microsome assessed as parent compound remaining measured upto 50 mins by LC-MS/MS analysis; type: ADME; settings: microsomes
# [19] = Toxicity in BALB/c mouse implanted with human A549/T cell assessed as WBC count at 30 mg/kg, ip administered every 2 days and measured after 2 weeks (reference value: 1.3 10^9/L); type: organism-based; settings: in vivo, 336 h
# A549 [20] = test: Induction of cell cycle arrest in human A549 cells assessed as accumulation of cells at G2/M phase by RNAse A/PI-staining based flow cytometric analysis; type: functional; settings: dose 25-100 nM
# A549 [21] = test: Antiproliferative activity against human A549 cells assessed as cell growth inhibition incubated for 48 hrs by MTT assay; settings: A549, 48 h
# A549/TR [22] = test: Induction of apoptosis in human A549/T cell at 125 nM incubated for 48 hrs by V-FITC/PI staining based flow cytometry analysis relative to control; type: functional
# [23] = Toxicity in BALB/c mouse implanted with human A549/T cell assessed as lung damage at 15 to 30 mg/kg, ip administered every 2 days by H and E staining based analysis; type: organism-based; settings: in vivo, 48 h, dose 15-30 mg/kg, time 2 day
# [24] = Aqueous solubility of the compound […] at pH 7.4 by HPLC analysis; type: physicochemical
# [25] = Toxicity in BALB/c mouse implanted with human A549/T cell assessed as mean platelet volume at 15 mg/kg, ip administered every 2 days and measured after 2 weeks (reference value: 10.1 fL); type: organism-based; settings: in vivo, 336 h
# Tubulin (Homo sapiens) [26] = biological target: T1, Tubulin (Homo sapiens); test: Disruption of microtubule network in human A549/T cell at 100 to 200 nM incubated for 24 hrs by immunofluorescence staining based confocal microscopy analysis; settings: dose 100-200 nM
# [27] = Toxicity in BALB/c mouse implanted with human A549/T cell assessed as lymphocyte count at 30 mg/kg, ip administered every 2 days and measured after 2 weeks (reference value: […]); type: organism-based; settings: in vivo, 336 h
# A549/TR [28] = test: Induction of apoptosis in human A549/T cell at 250 nM incubated for 48 hrs by V-FITC/PI staining based flow cytometry analysis relative to control; type: functional
# [29] = Toxicity in BALB/c mouse implanted with human A549/T cell assessed as mean platelet volume at 30 mg/kg, ip administered every 2 days and measured after 2 weeks (reference value: 10.1 fL); type: organism-based; settings: in vivo, 336 h
# [30] = Toxicity in BALB/c mouse implanted with human A549/T cell assessed as heart damage at 15 to 30 mg/kg, ip administered every 2 days by H and E staining based analysis; type: organism-based; settings: in vivo, 48 h, dose 15-30 mg/kg, time 2 day
# [31] = Metabolic stability in human liver microsome assessed as half life measured upto 50 mins by LC-MS/MS analysis; type: ADME; settings: liver microsomes
# [32] = Toxicity in BALB/c mouse implanted with human A549/T cell assessed as platelet count at 30 mg/kg, ip administered every 2 days and measured after 2 weeks (reference value: 539 […]); type: organism-based; settings: in vivo, 336 h
# [33] = Toxicity in BALB/c mouse implanted with human A549/T cell assessed as WBC count at 15 mg/kg, ip administered every 2 days and measured after 2 weeks (reference value: 1.3 10^9/L); type: organism-based; settings: in vivo, 336 h
structure (smiles),measurement,setting,value
COc1ccc(-c2cc(-c3ccc(OC)c(OC)c3OC)c3nc[nH]c3c2)cc1N,Activity,[1],31.6 pg
same,Activity,[2],12.3 fL
same,Activity,[3],28.9 pg
same,Activity,[4],589 g/L
same,Ratio IC50,[5],2.47
same,Activity,[6],5.94 10^12/L
same,Activity,[7],25 fL
same,Activity,Tubulin (Homo sapiens) [8],Active
same,Activity,[9],29.5%
same,Activity,A549 [10],15.47%
same,Activity,[11],Non-toxic
same,IC50,HCC827,46 nM
same,Activity,A549/TR [12],22.22%
same,Activity,[13],0.531%
same,Activity,A549/TR [14],inactive
same,CLint scaled,[15],87 mL/min/kg
same,IC50,NCI-H1299,63 nM
same,Activity,[16],55.2%
same,inhibition,A549/TR [17],Dose-dependent-effect
same,Stability,[18],Stable
same,Activity,[19],2.4 10^9/L
same,Activity,A549 [20],Dose-dependent-effect
same,IC50,A549 [21],23 nM
same,Activity,A549/TR [22],54.01%
same,Activity,[23],Non-toxic
same,solubility,[24],20.8 µg/mL
same,Activity,[25],10.5 fL
same,Activity,Tubulin (Homo sapiens) [26],Active
same,Activity,[27],1.32 10^9/L
same,Activity,A549/TR [28],68.13%
same,Activity,[29],10.2 fL
same,Activity,[30],Non-toxic
same,half-life,[31],75 min
same,Activity,[32],415 10^9/L
same,Activity,[33],2.8 10^9/L
